Values quoted from earlier work as cited in patent publication US20260027125A1, “AN ANTIBACTERIAL PARENTERAL FORMULATION AND METHODS THEREOF” (BUGWORKS RESEARCH INDIA PVT. LTD., priority 2022, published 2026).

Details: counter ion selected for salt screening; cited from earlier work

SMILES: O=C(O)CC(O)C(=O)O (stereo not shown) [malic acid]
- pKa (second value): 3.4, 5.11
